# Experimental data as given in a melting point compilation (Tetko et al.; mined from patent text by program, amines drawn as free bases though some values may be those of a salt).
row,melting point [°C],SMILES
1,104 to 106,Cn1c(-c2ccc(OCC3CO3)cc2)nnc1C(F)(F)F (stereo not drawn)
2,109 to 111,O=CNCC1Cc2ccccc2Cc2ccccc21 (stereo not drawn)
3,262 to 264,C=C(Nc1nc(-c2ccccc2)c(-c2nc3ccccc3c(=O)n2-c2ccc(OC)cc2)s1)c1ccco1
4,185 to 188,CNC(=S)NS(=O)(=O)c1cc(CCNC(=O)c2cc(Cl)ccc2OC)ccc1-c1ccc(OC)cc1
5,147 to 149,CCCn1nc(C(C)C)cc1Cc1ccc(-c2ccccc2-c2nnn[nH]2)cc1
6,106 to 108,COC(=O)C(O)C(NCc1ccccc1)c1ccc(Cl)cc1 (stereo not drawn)
7,188 to 189,CC(C)N1C(=O)[C@@H](CCO)O[C@H](c2ccccc2Cl)c2cc(Cl)ccc21 (relative stereo)
8,83 to 85,c1ccc(Oc2ccc(OCCOn3cccn3)cc2)cc1
9,131 to 133,CC(=O)c1nc2ccc(Oc3ccccc3)cc2cc1O
10,160 to 162,NC1=NS(=O)N=C1NCCCN(Cc1cccc(F)c1)c1ccccn1 (stereo not drawn)
11,206 to 207,CNC(=O)Nc1cc(OC)c(-c2ccc(C[C@H](NC(=O)c3c(Cl)cccc3Cl)C(=O)O)cc2)c(OC)c1
12,225 to 227,COC(=O)c1scc(-c2ccccc2)c1S(=O)(=O)NC(=O)Nc1nc(OC)cc(OC)n1
13,170 to 171,O=C(O)c1sc(Cl)nc1-c1ccccc1
14,> 250,CCOc1nc(O)cc(O)n1
15,141 to 142,CNC(=S)N1CCSC1c1ccccc1OCCN1CCC(c2ccccc2)CC1 (stereo not drawn)
16,206,CCOC(=O)c1c(Cl)c2sccc2[nH]c1=O
17,192 to 194,CCC1c2ccc(C#N)n2-c2ccc(F)cc2N1S(=O)(=O)c1ccc(O)c(C)c1 (stereo not drawn)

row,melting point [°C],SMILES
1,157 to 158,Ic1ccc2c(c1)ncn2-c1cccc(-c2ccccn2)c1
2,122 to 123,CCOC(=O)CNc1ccc2ncccc2c1
3,184 to 186,CCOC(=O)NNC(=O)Cc1c(C)cc(C)cc1C
4,131 to 132,CN(C)CCNC(=O)N1CCC(S(=O)(=O)c2ccc(Cl)cc2)C1 (stereo not drawn)
5,94,COc1ccc(C=O)c(OCCO)c1
6,142 to 144,CCCON=C(C(=O)OCC)c1csc(N)n1
7,118 to 121,CCc1cccc(C)c1CNc1cc(Cl)nc(Cl)c1[N+](=O)[O-]
8,159 to 160,COCCOc1ccc(/C=C/C(=O)O)c(Oc2ncc(NC(=O)OC(C)(C)C)cc2C)c1
9,111 to 112,CC(C)COC(=O)Oc1ccc(S(=O)(=O)c2ccc(S(N)(=O)=O)s2)cc1
10,129 to 131,C=CCOc1nc(N(CC)Cc2cc(Br)ccc2OCc2ccccc2)ccc1C(=O)O
11,98 to 99,N#Cc1ccc(-c2nc(COc3ccc(CCCn4ccnc4)cc3)co2)cc1
12,176 to 182,CC(=O)N(C)C(Cc1ccccc1N)c1sccc1C (stereo not drawn)
13,151 to 155,COc1cc2c(cc1OC)CN(C(=O)C13CC4CC(CC(C4)C1)C3)CC2
14,172 to 174,O=C(O)COc1cc(F)ccc1C(=O)NCc1nc2c(F)c(F)cc(F)c2s1
15,109 to 115,CCOC(OCC)C(C#N)(C=O)Cc1cc(OC)c(OC)c(OC)c1 (stereo not drawn)
16,200 to 202,CCOC1=C(C#N)C(c2ccccc2)=C2C(=O)N(CC)C(c3ccccc3)=C12
17,228 to 229,CC1(c2ccc(O)c(Br)c2)C(=O)Nc2cc(Cl)cc(Cl)c2C1=O (stereo not drawn)

# The remaining lines, values behind:
row,SMILES,melting point [°C]
1,Nc1c(-c2cc(Cl)ccc2O)c2c(C(F)(F)F)c(Cl)ccc2[nH]c1=O,139 to 140
2,O=C(NC1CCCC1)c1cc2ccncc2[nH]1,220 to 224
3,FC(F)(F)c1nn(-c2c(Cl)cc(Cl)cc2Cl)cc1Br,93 to 94
4,CCCCCCCCCCCCCCCCCCOc1cc(N)cc(OCCCP(=O)(OCC)OCC)c1,63 to 65
5,C[C@H](CN1CC(F)C1)NC(=O)c1c[nH]c2ncc(-c3nn(C)c4cc(Cl)ccc34)nc12,182 to 185
6,CCOc1cc2oc(=O)c3c(c2cc1OCC)CCN(CCN1CCCCC1)C3,144 to 146
7,N#Cc1ccsc1N=Cc1cccs1,58 to 60
8,O=C(N[C@H](Cc1cccc(Oc2ccccc2)c1)[C@@H](O)c1ccc(F)cc1)c1ccc(F)c2ccccc12 (racemic),120 to 121
9,O=C(Nc1c([N+](=O)[O-])cc(F)c(Cl)c1F)C(F)(F)F,124 to 125
10,CC(C)c1cccc(C(C)C)c1NC(=O)CNC(c1ccccc1)c1ccccn1 (stereo not drawn),135 to 136
11,CCCCCCCCCCCCCCCCN(CC(O)CO)C(C)=O (stereo not drawn),56 to 58
12,NC1=NN(c2nc3ccccc3s2)C(c2ccccc2)C1 (stereo not drawn),270 to 272
13,CCc1nsc(N=C(Cl)N(C)C)c1C#N,95 to 97
14,OC(c1cccc(F)c1)C1CCCCN1 (stereo not drawn),146 to 148
15,O=C(O)CCc1cn(Cc2ccc(OCc3coc(-c4ccccc4)n3)cc2)nc1-c1cccs1,145 to 146
16,Cc1csc(C)c1C(=O)O,164 to 165
17,CC(C)COC(=O)Nc1ccc(Sc2c(O)c3c(Cl)cc(Cl)cc3[nH]c2=O)cc1,> 300
18,CC(C)(c1ccc(Oc2ccc(N)cc2)cc1)c1cccc(C(C)(C)c2ccc(Oc3ccc(N)cc3)cc2)c1,180
19,O=C(O)CCCCCCCCCCCNC(=O)CCCCCCCCCCI,107 to 110
20,O=C1Nc2ccccc2S(=O)(=O)c2cc(C(F)(F)F)ccc21,240 to 241

row,SMILES,melting point [°C]
1,Oc1cc(C(F)(F)F)nc2cc(C(F)(F)F)ccc12,184 to 185
2,Fc1ccc(-c2cn3c(n2)SCC3)cc1,116 to 118
3,Cc1ccc(C(=O)N[C@H]2CC[C@H](CCN3CCN(c4nccc5c4OCC5)CC3)CC2)cn1,204
4,O=C1c2nccc([N+](=O)[O-])c2-c2nc3ccccc3c3ccnc1c23,> 260
5,CC1=C(C#N)C(c2cccc3ncc(-c4ccccc4)cc23)C(C(=O)OC(C)C)=C(N)N1 (stereo not drawn),227 to 229
6,O=C(Cc1ccccc1Nc1c(Cl)cccc1Cl)OCc1ccccn1,80 to 81
7,O=C(O)c1ccc2c(c1)C(=C(Cl)Cl)OC(=C(Cl)Cl)O2,199 to 200
8,CC(Oc1cc(-n2nc3n(c2=O)CCCC3)c(Cl)cc1Cl)C(=O)O (stereo not drawn),183 to 185
9,O=c1[nH]c2ncc(-c3ccc4[nH]ncc4c3)nc2n1CC1CCCCC1,311 to 313
10,CS(=O)(=O)c1ccc(CC(=O)c2c(O)c3cccnc3n(-c3ccccc3)c2=O)cc1,260 to 262
11,Cc1cc(CCCCCOc2c(C)cc(-c3noc(C(F)(F)F)n3)cc2C)on1,41 to 42
12,NC1(CCC(O)(P(=O)(O)O)P(=O)(O)O)CCCCC1,143
13,Cc1ccc(N(C#N)C(=O)CCCCC(=O)N(C#N)c2ccc(C)cc2C)c(C)c1,120 to 122
14,CC(C)OC1OC(=O)CC(C)(C)C1O (stereo not drawn),50
15,CC(=O)SCC1CCCCCCC(C(=O)N2C(=O)OCC2Cc2ccccc2)NC1=O (stereo not drawn),65 to 66
16,NCC1Cc2cccc3cccc1c23 (stereo not drawn),> 250
17,C/C(NC1CCCCC1)=C(\C#N)C(N)=S,142 to 144
18,Cn1nnnc1C(CO)=C(c1ccc(F)cc1)c1ccc(F)cc1,141 to 142
19,O=C(c1ccc(Cl)cc1)c1cccc2c1CCC2C(=O)O (stereo not drawn),137 to 139
